The values below come from publication PMC8617627, “Novel DYRK1A Inhibitor Rescues Learning and Memory Deficits in a Mouse Model of Down Syndrome” (Pharmaceuticals, 2021).

Where two headings read alike, the source gives them in different places.

What all share (experiment): Kinase profile (33P ATP filter binding)
What all share (type): biochemical

The target of one experiment is CDK9-Cyclin T1 (Homo sapiens, UniProt P50750). Particulars: read-out: Remaining protein kinase activity.
The next experiment addresses T1, BRSK1 (Homo sapiens, UniProt Q8TDC3).
T1 sequence (Q8TDC3 1-778): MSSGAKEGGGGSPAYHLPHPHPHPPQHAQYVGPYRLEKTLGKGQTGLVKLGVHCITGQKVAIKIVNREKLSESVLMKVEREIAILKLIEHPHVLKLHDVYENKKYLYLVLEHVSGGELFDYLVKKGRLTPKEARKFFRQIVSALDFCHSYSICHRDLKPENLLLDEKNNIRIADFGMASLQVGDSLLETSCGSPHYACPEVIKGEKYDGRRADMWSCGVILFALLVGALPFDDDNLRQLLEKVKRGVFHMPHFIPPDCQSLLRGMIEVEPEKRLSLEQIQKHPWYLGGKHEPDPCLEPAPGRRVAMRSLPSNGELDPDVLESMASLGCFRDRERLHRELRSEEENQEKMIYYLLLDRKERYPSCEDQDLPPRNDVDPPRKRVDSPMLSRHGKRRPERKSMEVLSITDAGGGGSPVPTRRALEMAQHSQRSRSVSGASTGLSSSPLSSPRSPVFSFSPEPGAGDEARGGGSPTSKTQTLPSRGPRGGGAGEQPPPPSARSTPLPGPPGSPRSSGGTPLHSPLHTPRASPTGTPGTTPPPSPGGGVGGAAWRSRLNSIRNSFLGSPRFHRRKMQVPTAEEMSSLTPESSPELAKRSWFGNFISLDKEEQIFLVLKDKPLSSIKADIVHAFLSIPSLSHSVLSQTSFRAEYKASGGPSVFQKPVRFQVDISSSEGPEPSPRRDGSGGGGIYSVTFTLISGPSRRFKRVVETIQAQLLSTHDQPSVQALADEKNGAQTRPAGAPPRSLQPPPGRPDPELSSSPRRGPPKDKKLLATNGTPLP
The following applies: read-out: Remaining protein kinase activity.

The target of a further experiment is JNK2 (Homo sapiens, UniProt P45984).
Chain of JNK2 (P45984 whole entry, species assumed): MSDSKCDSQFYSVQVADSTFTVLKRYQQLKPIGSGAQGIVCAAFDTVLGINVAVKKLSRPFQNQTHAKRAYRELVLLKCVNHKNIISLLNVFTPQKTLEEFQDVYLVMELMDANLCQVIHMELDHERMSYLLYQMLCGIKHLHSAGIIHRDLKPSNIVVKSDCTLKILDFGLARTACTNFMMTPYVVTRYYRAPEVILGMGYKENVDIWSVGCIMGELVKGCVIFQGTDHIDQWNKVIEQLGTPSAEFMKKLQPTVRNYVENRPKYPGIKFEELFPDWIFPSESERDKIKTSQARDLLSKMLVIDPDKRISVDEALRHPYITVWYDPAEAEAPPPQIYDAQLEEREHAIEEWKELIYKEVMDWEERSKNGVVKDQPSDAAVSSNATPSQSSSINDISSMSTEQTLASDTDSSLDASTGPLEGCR
The target in a further experiment is T2, TAK1 (Homo sapiens, UniProt O43318).
T2 sequence (O43318 1-303 limits assumed): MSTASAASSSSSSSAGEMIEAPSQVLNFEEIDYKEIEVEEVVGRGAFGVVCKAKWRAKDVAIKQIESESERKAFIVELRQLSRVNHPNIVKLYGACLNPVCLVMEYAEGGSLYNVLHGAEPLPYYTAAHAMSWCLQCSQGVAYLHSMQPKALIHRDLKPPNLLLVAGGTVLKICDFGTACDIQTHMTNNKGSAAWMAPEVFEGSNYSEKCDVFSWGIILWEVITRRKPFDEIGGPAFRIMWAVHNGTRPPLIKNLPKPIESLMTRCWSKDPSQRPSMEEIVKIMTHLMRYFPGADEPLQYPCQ
Particulars: read-out: Remaining protein kinase activity.

The target in another experiment is ABL (Homo sapiens, UniProt P00519). The following applies: read-out: Remaining protein kinase activity.
Chain of ABL (P00519 whole entry): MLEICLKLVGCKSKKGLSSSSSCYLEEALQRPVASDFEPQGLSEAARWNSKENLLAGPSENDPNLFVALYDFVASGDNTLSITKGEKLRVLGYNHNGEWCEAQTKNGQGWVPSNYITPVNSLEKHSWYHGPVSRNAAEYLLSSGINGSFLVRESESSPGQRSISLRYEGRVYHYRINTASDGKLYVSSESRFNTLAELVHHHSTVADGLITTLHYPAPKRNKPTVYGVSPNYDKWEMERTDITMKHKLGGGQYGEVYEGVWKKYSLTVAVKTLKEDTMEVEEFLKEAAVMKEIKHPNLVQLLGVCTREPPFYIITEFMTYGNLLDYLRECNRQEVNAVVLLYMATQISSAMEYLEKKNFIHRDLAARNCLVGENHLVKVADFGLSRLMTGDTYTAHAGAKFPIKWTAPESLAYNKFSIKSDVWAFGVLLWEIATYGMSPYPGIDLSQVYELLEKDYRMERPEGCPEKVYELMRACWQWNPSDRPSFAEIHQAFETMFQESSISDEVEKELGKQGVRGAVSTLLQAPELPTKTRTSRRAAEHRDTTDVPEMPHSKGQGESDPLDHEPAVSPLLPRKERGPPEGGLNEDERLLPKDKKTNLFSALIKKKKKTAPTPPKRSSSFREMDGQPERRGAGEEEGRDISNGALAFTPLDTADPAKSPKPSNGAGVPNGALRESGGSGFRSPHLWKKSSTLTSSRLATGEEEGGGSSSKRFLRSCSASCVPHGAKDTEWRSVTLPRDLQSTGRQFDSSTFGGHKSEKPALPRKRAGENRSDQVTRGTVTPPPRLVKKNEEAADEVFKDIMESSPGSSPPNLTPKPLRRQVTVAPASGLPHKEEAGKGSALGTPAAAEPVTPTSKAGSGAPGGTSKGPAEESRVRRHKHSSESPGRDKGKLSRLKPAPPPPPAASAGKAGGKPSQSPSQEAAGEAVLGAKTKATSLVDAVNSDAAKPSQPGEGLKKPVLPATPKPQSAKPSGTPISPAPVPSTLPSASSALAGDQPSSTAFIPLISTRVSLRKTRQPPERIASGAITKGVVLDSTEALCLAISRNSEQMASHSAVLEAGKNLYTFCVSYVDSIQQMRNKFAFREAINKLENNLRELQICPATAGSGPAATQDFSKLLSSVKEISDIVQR
The next experiment deals with T3, Aurora A (Homo sapiens, UniProt O14965).
T3 sequence (O14965 1-403): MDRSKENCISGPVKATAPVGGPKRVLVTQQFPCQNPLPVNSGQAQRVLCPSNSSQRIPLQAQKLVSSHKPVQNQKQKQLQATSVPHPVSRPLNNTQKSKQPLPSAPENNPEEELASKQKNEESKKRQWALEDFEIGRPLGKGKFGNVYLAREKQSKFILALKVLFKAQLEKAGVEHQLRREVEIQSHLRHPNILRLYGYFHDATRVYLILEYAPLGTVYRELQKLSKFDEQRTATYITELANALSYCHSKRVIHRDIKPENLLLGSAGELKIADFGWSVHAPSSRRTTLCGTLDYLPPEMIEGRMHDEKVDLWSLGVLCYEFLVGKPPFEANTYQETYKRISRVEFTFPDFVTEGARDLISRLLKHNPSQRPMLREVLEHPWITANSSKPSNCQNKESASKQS
The following applies: for remaining activity at 1 µM / remaining activity at 100 µM: read-out: Remaining protein kinase activity.

In the next experiment the target is NEK6 (Homo sapiens, UniProt Q9HC98). The following applies: read-out: Remaining protein kinase activity.
Chain of NEK6 (Q9HC98 whole entry): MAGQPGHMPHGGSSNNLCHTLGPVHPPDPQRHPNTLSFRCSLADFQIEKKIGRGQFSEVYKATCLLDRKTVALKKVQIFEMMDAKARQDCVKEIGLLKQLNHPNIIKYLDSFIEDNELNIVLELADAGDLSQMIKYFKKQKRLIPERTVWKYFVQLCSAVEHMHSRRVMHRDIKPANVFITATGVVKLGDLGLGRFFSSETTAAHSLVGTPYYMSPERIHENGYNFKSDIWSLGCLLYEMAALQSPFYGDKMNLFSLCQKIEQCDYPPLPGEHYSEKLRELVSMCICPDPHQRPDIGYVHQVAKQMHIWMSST

Chain of CDK9-Cyclin T1 (P50750 whole entry): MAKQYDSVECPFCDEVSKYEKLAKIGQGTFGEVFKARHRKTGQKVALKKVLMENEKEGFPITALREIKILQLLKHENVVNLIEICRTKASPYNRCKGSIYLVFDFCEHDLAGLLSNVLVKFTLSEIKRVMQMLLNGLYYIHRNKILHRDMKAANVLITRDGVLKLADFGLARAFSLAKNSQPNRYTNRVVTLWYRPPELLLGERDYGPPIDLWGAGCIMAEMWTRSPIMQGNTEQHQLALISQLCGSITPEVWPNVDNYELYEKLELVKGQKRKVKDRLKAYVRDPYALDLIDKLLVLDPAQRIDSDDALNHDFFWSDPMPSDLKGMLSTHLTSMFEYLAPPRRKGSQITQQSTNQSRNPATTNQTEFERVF
Chain of CDK9-Cyclin T1 (O60563 whole entry partner): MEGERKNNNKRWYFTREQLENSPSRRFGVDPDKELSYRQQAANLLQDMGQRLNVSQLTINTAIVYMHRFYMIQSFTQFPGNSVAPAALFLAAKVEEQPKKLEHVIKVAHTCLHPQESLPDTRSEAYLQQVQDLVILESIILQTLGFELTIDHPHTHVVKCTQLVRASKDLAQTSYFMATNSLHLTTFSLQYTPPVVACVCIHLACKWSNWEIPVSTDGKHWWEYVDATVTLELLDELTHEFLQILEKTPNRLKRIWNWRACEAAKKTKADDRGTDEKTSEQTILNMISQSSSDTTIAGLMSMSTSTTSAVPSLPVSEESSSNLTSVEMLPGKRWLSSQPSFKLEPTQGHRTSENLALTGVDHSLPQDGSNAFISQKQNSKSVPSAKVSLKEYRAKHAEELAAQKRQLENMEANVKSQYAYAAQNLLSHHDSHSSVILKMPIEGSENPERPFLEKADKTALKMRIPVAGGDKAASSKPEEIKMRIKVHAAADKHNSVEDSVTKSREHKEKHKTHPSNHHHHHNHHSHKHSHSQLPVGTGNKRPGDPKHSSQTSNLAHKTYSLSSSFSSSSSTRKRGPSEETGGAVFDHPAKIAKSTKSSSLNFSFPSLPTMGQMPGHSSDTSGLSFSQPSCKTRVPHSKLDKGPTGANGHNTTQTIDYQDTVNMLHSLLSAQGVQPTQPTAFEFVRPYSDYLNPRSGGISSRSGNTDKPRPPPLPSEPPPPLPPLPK

Broadly, the remaining activity is the signal under treatment as a percentage of the control signal. On to `COc1ccc2sc(-c3cncc(N)c3)nc2c1` [compound 1, 5-(5-Methoxybenzo[d]thiazol-2-yl)pyridin-3-amine], for which the remaining activity at 1 µM at CDK9-Cyclin T1 (CDK9-Cyclin T1, 1 μM) is 113%; at BRSK1 (BRSK1, 1 μM), 115%; on TAK1 (TAK1, 1 μM), 70%; on ABL (ABL, 1 μM) it was 108%; on Aurora A (Aurora A, 1 μM), 132%; on NEK6 (NEK6, 1 μM), 106%. Besides, the remaining activity at 100 µM on CDK9-Cyclin T1 (CDK9-Cyclin T1, 100 μM) amounted to 83%; at BRSK1 (BRSK1, 100 μM) it was 37%; at TAK1 (TAK1, 100 μM), 6%; on ABL (ABL, 100 μM) it was 46%; at Aurora A (Aurora A, 100 μM), 97%; at NEK6 (NEK6, 100 μM), 115%. For the same molecule, the results for the “Remaining protein kinase activity” value on JNK2 (1 μM) and at JNK2 (100 μM) were 123% and 104%, respectively.
With `COc1ccc2sc(-c3cncc(NC(C)=O)c3)nc2c1` [PST-001, N-(5-(5-Methoxybenzo[d]thiazol-2-yl)pyridin-3-yl)acetamide], the remaining activity at 1 µM on CDK9-Cyclin T1 is 122%; at BRSK1, 114%; on TAK1, 48%; on ABL, 97%; at Aurora A, 133%; at NEK6, 112%. In addition, the remaining activity at 100 µM at CDK9-Cyclin T1 was 120%; on BRSK1, 111%; on TAK1 it was 63%; on ABL it was 99%; on Aurora A, 136%; at NEK6 it was 113%. Also, the “Remaining protein kinase activity” value came out at 126% at JNK2 (1 μM) and 129% at JNK2 (100 μM). Besides, on Aurora A (in words), the “Effect on Aurora A” value is on record as “moderately activated”.
